This is an account of results in patent US9820972B2, “Antiviral compounds highly effective as HCV-NS5A inhibitor” (priority 2013, dated 2017).

Read-outs that look alike come from different tables or passages of the source.

Data set [1] deals with GT-1a of NS5A Replicon. The data set is described as follows: HCV double reporter gene (Renilla luciferase) replicon assay, GT-1a. The format is cell-based, Hepatitis C virus (HCV). Summed up:
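Replication measured in a double-reporter HCV replicon cell system by Renilla luciferase signal. EC50 from 8-point 2-fold dilutions, triplicate wells, three repeats, with 1 or 2 control drugs.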
For orientation: In a reporter assay the amount or activity of a reporter protein is the signal.

Data set [2] in a line: Acute Toxicity Study (MTD). The format is in vivo, rats and mice. The following applies: rats or mice, fed once, oral dose 10000 mg/kg, observed for a week. An excerpt: Acute Toxicity Study (MTD):
Materials and Methods for MTD Study are as follows:
Animals were fed freely for adaptation more than 1 week. Healthy rats, body weight between 170-190 g, were divided randomly into 3 groups, 5 male and 5 female in each group. Healthy mice, body weight between 18-22 g, were divided randomly into 22 groups, 5 male and 5 female in each group.
In rats, the compound weighing 21.00 g, serial number 1-3 respectively, adding 0.7% sodium carboxymethyl cellulose solution 30.00 g, high-speed homogenizer machine 15000 RPM, 10 min mixing, the rats were fed once, oral dose 10000 mg/kg. In mice, the compound weighing 2.00 g, serial number 4-25 respectively, adding 0.7% sodium carboxymethyl cellulose solution 8.00 g, high-speed homogenizer machine 10000 RPM, 10 min mixing, the mice were fed once, oral dose 10000 mg/kg.
Animals were observed every hour after administration in the first day, and behavior observation daily continuous for a week. Dead animals were necropsied, gross pathology of the organs were observed and recorded.
Toxicity was evaluated by animal mortality, signs of clinical behavior and others.

Data set [3] deals with HCV NS5A Replicon GT-6a. The data set is described as follows: HCV double reporter gene replicon assay, GT-6a. The format is cell-based. Conditions: Hepatitis C virus, genotype 1a / genotype 6a; GT-6a replicon. On the procedure:
(§1) Antiviral Assay for Inhibition Activity (EC50):
(§2) The study is completed by a new constructed double reporter genes replicon assay system, the capacity of viral replicon in infected cell is determined by detecting the reporter gene Renilla luciferase. The relationship of reporter genes, HCV RNA replicon and viral proteins is well linear. 8 gradient concentrations for 2-fold dilution, 3 wells, 3 times repetition and 1 or 2 control drugs are set to finally determine EC50 of compound.
(§3) THF was distilled from sodium metal and benzophenone. DCM, pentane and hexane were distilled form calcium hydride. Special raw material and intermediate in the invention were ordered by contract synthesis from Zannan SciTech Co., Let in China, others reagents were purchased from Shanghai reagent company, Aldrich, Acros etc. As intermediates or products during the synthesis is not required for the reaction and other tests the next step, the synthesis is repeated until a sufficient number of times. The invention of the prepared compounds of […] (HCV NS5A) inhibitory activity test was performed by CRO service units such as WuXi AppTec etc.

The test system of data set [4] is HCV NS5A Replicon GT-1b. The data set is described as follows: HCV double reporter gene replicon assay, GT-1b. The class given is cell-based. Conditions: Hepatitis C virus, genotype 1a / genotype 1b / genotype 6a; GT-1b replicon. On the procedure:
as §1, §2, §3

Data set [5] deals with HCV NS5A Replicon GT-2a. Put plainly: HCV double reporter gene replicon assay, GT-2a. The format is cell-based. Conditions: Hepatitis C virus, genotype 1a / genotype 2a / genotype 6a; GT-2a replicon. How it is done: as §1, §2, §3
In data set [6] the test system is HCV NS5A Replicon GT-3a. The data set is described as follows: HCV double reporter gene replicon assay, GT-3a. The class given is cell-based. Conditions: Hepatitis C virus, genotype 1a / genotype 3a / genotype 6a; GT-3a replicon. On the procedure:
as §1, §2, §3

In data set [7] the test system is HCV NS5A Replicon GT-5a. Put plainly: HCV double reporter gene replicon assay, GT-5a. The format is cell-based. Conditions: Hepatitis C virus, genotype 1a / genotype 5a / genotype 6a; GT-5a replicon. On the procedure: as §1, §2, §3
The subject of data set [8] is HCV NS5A Replicon GT-4a. Put plainly: HCV double reporter gene replicon assay, GT-4a. The format is cell-based. Conditions: Hepatitis C virus, genotype 1a / genotype 4a / genotype 6a; GT-4a replicon. How it is done:
as §1, §2, §3

Setting [9] is: Hepatitis C virus, genotype 1a / genotype 6a, read-out: EC50 for Replicon (pM) of GT-1a to GT-6a: 1a.
[10] abbreviates: Hepatitis C virus, GT1A, GT-1a replicon, class symbols, read-out: EC50 For GT-1a of NS5A Replicon.

One may read the EC50 as the midpoint of the concentration-response curve. As for `COC(=O)N[C@H](C(=O)N1CC=C[C@H]1c1ncc(-c2ccc(-c3ccc(-c4c[nH]c([C@@H]5CCCN5C(=O)[C@@H](NC(=O)OC)C(C)C)n4)cc3)cc2)[nH]1)C(C)C` [Compound 6ba], the EC50 in data set [1] (setting [9]) is 39 pM; in data set [3] it was 221 pM; in data set [4] it was 12 pM; in data set [5] it was 16 pM. Also, the “MTD results: test-article related death and adverse events” value (“MTD results” for short) in data set [2] is “no any test-article related death and no any adverse events observed”.
With `COC(=O)N[C@H](C(=O)N1CCCC1c1nc(-c2ccc(-c3ccc(-c4c[nH]c(C5C=CCN5C(=O)[C@H](NC(=O)OC)c5ccccc5)n4)cc3)cc2)c[nH]1)C(C)C` (stereo partly shown) [Compound 6bx], in data set [1] (setting [10]), the 50% effective concentration (EC50) was 1 to 999 pM. Further, the “MTD results” value in data set [2] is “no any test-article related death and no any adverse events observed”.
For the compound `COC(=O)N[C@H](C(=O)N1CC=CC1c1nc(-c2ccc(-c3ccc(-c4c[nH]c(C5CCCN5C(=O)[C@H](NC(=O)OC)c5ccccc5)n4)cc3)cc2)c[nH]1)C(C)C` (stereo partly shown) [Compound 6by], in data set [1] (setting [10]), the 50% effective concentration (EC50) fell in the range of 1 to 999 pM. The “MTD results” value in data set [2] is “no any test-article related death and no any adverse events observed”.
Regarding `COC(=O)N[C@@H](C(=O)N1CC=CC1c1nc(-c2ccc(-c3ccc(-c4c[nH]c(C5CCCN5C(=O)[C@H](NC(=O)OC)c5ccccc5)n4)cc3)cc2)c[nH]1)c1ccccc1` (stereo partly shown) [Compound 6bz], in data set [1] (setting [10]), the EC50 lay in the range of 1 to 999 pM. The “MTD results” value in data set [2] was “no any test-article related death and no any adverse events observed”.
Regarding `COC(=O)N[C@H](C(=O)N1CCC[C@H]1c1nc(-c2ccc(-c3ccc(-c4cnc([C@@H]5C=CCN5C(=O)[C@H](NC(=O)OC)c5ccccc5)[nH]4)cc3)cc2)c[nH]1)C(C)C` [Compound 6dy], the EC50 is 11 pM in data set [1] (setting [9]), 24 pM in data set [3], 14 pM in data set [4] and 6 pM in data set [5].
On to `COC(=O)N[C@H](C(=O)N1CCCC1c1nc(-c2cc3sc(-c4ccc(-c5c[nH]c(C6C=CCN6C(=O)[C@H](NC(=O)OC)c6ccccc6)n5)cc4)cc3s2)c[nH]1)C(C)C` (stereo partly shown) [Compound 6fc], for which, in data set [2], the “MTD results” value was “no any test-article related death and no any adverse events observed”.
As for `COC(=O)N[C@@H](C(=O)N1CC=CC1c1nc(-c2ccc(-c3cc4sc(-c5c[nH]c(C6CCCN6C(=O)[C@H](NC(=O)OC)c6ccccc6)n5)cc4s3)cc2)c[nH]1)c1ccccc1` (stereo partly shown) [Compound 6fd], the EC50 in data set [6] is 15 pM; in data set [1] (setting [10]), 1 to 999 pM; in data set [1] (setting [9]), 21 pM; in data set [7], 23 pM; in data set [3] it was 111 pM; in data set [4], 11 pM. Besides, the 50% effective concentration (EC50) was 5 pM in data set [5] and 8 pM in data set [8]. Also, in data set [2], the “MTD results” value is “no any test-article related death and no any adverse events observed”.
As to `COC(=O)N[C@H](C(=O)N1CC=C[C@H]1c1ncc(-c2ccc(-c3cc4sc(-c5cnc([C@@H]6CCCN6C(=O)[C@@H](NC(=O)OC)C(C)C)[nH]5)cc4s3)cc2)[nH]1)C(C)C` [Compound 6fg], the concentration for a half-maximal effect (EC50) in data set [1] (setting [10]) fell in the range of 1 to 999 pM. Moreover, the “MTD results” value in data set [2] is “no any test-article related death and no any adverse events observed”.
Consider `COC(=O)N[C@H](C(=O)N1CC=C[C@H]1c1ncc(-c2ccc(-c3cc4sc(-c5cnc([C@@H]6CCCN6C(=O)[C@H](NC(=O)OC)c6ccccc6)[nH]5)cc4s3)cc2)[nH]1)C(C)C` [Compound 6fi], for which the half-maximal effective concentration (EC50) in data set [1] (setting [9]) came out at 20 pM; in data set [3], 55 pM; in data set [4] it was 5 pM; in data set [5] it was 7 pM. Moreover, the “MTD results” value in data set [2] was “no any test-article related death and no any adverse events observed”.
For `COC(=O)N[C@H](C(=O)N1CCC[C@H]1c1ncc(-c2ccc(-c3cc4sc(-c5cnc([C@@H]6C=CCN6C(=O)[C@H](NC(=O)OC)c6ccccc6)[nH]5)cc4s3)cc2)[nH]1)C(C)C` [Compound 6fm], the 50% effective concentration (EC50) in data set [1] (setting [9]) came out at 9 pM; in data set [3] it was 23 pM; in data set [4] it was 13 pM; in data set [5] it was 8 pM. Further, the “MTD results” value in data set [2] was “no any test-article related death and no any adverse events observed”.
In the case of `COC(=O)N[C@H](C(=O)N1CC=C[C@H]1c1ncc(-c2cc3sc(-c4ccc(-c5cnc([C@@H]6CCCN6C(=O)[C@H](NC(=O)OC)c6ccccc6)[nH]5)cc4)cc3s2)[nH]1)C(C)C` [Compound 6fp], in data set [1] (setting [10]), the EC50 is 1 to 999 pM. Further, in data set [2], the “MTD results” value was “no any test-article related death and no any adverse events observed”.
On to `COC(=O)N[C@H](C(=O)N1CCC[C@H]1c1nc(-c2ccc(-c3ccc(-c4c[nH]c([C@@H]5CCCN5C(=O)[C@@H](NC(=O)OC)C(C)C)n4)cc3)cc2)c[nH]1)C(C)C` [Ref-1, reference compound], for which the EC50 in data set [1] (setting [9]) came out at 52 pM; in data set [3], 118 pM; in data set [4], 21 pM; in data set [5], 29 pM.
In the case of `COC(=O)N[C@@H](C(=O)N1CCCC1c1ncc(-c2ccc(-c3cc4sc(-c5cnc([C@@H]6CCCN6C(=O)[C@H](NC(=O)OC)c6ccccc6)[nH]5)cc4s3)cc2)[nH]1)c1ccccc1` (stereo partly shown) [Ref-3, reference compound], the figures for the EC50 in data set [1] (setting [10]) and in data set [1] (setting [9]) were 1 to 999 pM and 51 pM, respectively.
As for `COC(=O)N[C@H](C(=O)N1CCC[C@H]1c1nc2cc(-c3csc4c(-c5ccc(-c6c[nH]c([C@@H]7CCCN7C(=O)[C@H](NC(=O)OC)c7ccccc7)n6)cc5)csc34)ccc2[nH]1)C(C)C` [Ref-4, reference compound], in data set [1] (GT-1a replicon, class symbols, read-out: EC50 For GT-1a of NS5A Replicon), the EC50 is 1 to 999 pM.
